In patent publication US4564613A, “Pyridoindole derivatives, compositions and use” (Troponwerke GmbH & Co., priority 1983, dated 1986):

Experiments:
[1] = tested on: ptosis in mice induced by tetrabenazine; test: Tetrabenazine antagonism (ptosis in mice induced by tetrabenazine); format: in vivo; conditions: Mus musculus, ip, compound intraperitoneally, 20 mg/kg of tetrabenazine intraperitoneally, read-out: ED50 (dose at which the ptosis induced by tetrabenazine is reduced to 50%)
Protocol: (§1) Some test results for the new compounds of the general formula I which were tested for anxiolytic, nootropic and antidepressive properties are given below. The pilot tests used were inhibition of footshock induced aggression (Tedeschi et al., J. Pharmacol. Exp. Ther. 129, p. 28-34, 1954), for the anxiolytic action and the antitetrabenazine test (J. L. Howard et al., in: Antidepressants: Neurochemical, Behavioral and Clinical Perspectives, edited by S. J. Enna et al., Raven Press N.Y., pages 107-120, 1981) and amphetamine potentiation test (J. L. Howard et al., in: Antidepressants: Neurochemical, Behavioral and Clinical Perspectives, edited by S. J. Enna et al., Raven Press N.Y., pages 107-120, 1981) for the antidepressive action.
Substances having an antidepressive action antagonize the ptosis in mice induced by tetrabenazine. The ED50 value indicates the dose at which the ptosis induced by 20 mg/kg of tetrabenazine intraperitoneally is reduced to 50%.

[2] = tested on: amphetamine-induced stereotype behavior in rats; test: Amphetamine potentiation (amphetamine-induced stereotype behavior in rats); format: in vivo; conditions: Rattus norvegicus, ip, compound intraperitoneally, 2 mg/kg of DL-amphetamine sulphate intravenous, read-out: ED50 (dose at which the amphetamine-induced behavior is intensified by 50%)
Protocol: as §1
Substances having an antidepressive action potentiate the amphetamine-induced stereotype behavior in rats.
The ED50 value given is the dose at which the amphetamine-induced behavior is intensified by 50% following intravenous administration of 2 mg/kg of DL-amphetamine sulphate.

| Structure (SMILES) | ED50 [1] [mg/kg] | ED50 [2] [mg/kg] |
| --- | --- | --- |
| CN1Cc2c(ccc3c2NC(=O)C3=O)C(c2ccc(F)cc2)C1 (centres unmarked) [1 a] | 1 |  |
| CN1Cc2c(ccc3c2NC(=O)C3=O)C(c2ccccc2)C1 (centres unmarked) [1 b] | 2 |  |
| CN1Cc2c(ccc3cc[nH]c23)C(c2ccccc2)C1 (centres unmarked) [2 a] | 0.3 | 2.4 |
| CN1Cc2c(ccc3cc[nH]c23)C(c2ccc(F)cc2)C1 (centres unmarked) [2 b] | 0.2 | 3.9 |
| CN1Cc2c(ccc3c2NCC3)C(c2ccccc2)C1 (centres unmarked) [3 a] | 0.1 | 1.2 |
| CN1Cc2c(ccc3c2NCC3)C(c2ccc(F)cc2)C1 (centres unmarked) [3 b] | 0.01 | 2.2 |
| CN1Cc2c(ccc3c2N(C)CC3)C(c2ccc(F)cc2)C1 (centres unmarked) [Compound 4, 1,8-Dimethyl-6-(fluorophenyl)-2,3,6,7,8,9-hexahydro-1H-pyrido[4,3-g]indole] | 0.01 |  |
